Data taken from patent US8821862B2, “Soluble β-N-acetylglucosaminidase based antibiofilm compositions and uses thereof” (Kane Biotech Inc., priority 2002, dated 2014).

Tests used:
[1] = test system: A. actinomycetemcomitans strain CU1000 (wild-type) biofilms; assay: Biofilm detachment assay (crystal violet); type: cell-based
Text: (§1) Bacterial strains, media, and growth conditions. A. actinomycetemcomitans strain CU1000 (serotype f) was isolated from a person with localized aggressive periodontitis (Fine et al., Microbiol. 1999, 145: 1335-1347). […] An isogenic PGA mutant strain HW1018 (CU1000 pgaC::IS903φKan) was isolated by randomly mutagenizing CU1000 with transposon IS903φKan and selecting mutants that produced white colonies on Congo red agar, as previously described (Kaplan et al., 2003; Kaplan et al., J. Bacteriol. 2004, 186: 8213-8220). Like other pgaC mutant strains, HW1018 was completely deficient in PGA production, but still formed tenacious biofilms on plastic surfaces (Kaplan et al., 2004). Bacteria were grown in trypticase soy broth supplemented with […] and 8 g/L glucose. Solid medium was supplemented with 15 g/L agar. All cultures were incubated statically at 37° C. in 10% CO2.
(§2) Biofilm Cultures. Biofilms were grown in 17 mm×100 mm culture tubes (untreated polystyrene; Falcon #352051) or 96-well microtiter plates (tissueculture-treated polystyrene, flat bottoms; Falcon #353072). Culture vessels were inoculated with a 1:10 dilution of inoculum in fresh broth (1 mL for tubes or 200 μL for microplates) and incubated for 24 h.
(§3) Crystal Violet Assay. Biofilm biomass was visualized and quantitated by means of a crystal violet binding assay as previously described (Kaplan et al., Antimicrob. Agents Chemother. 2004, 48: 2633-2636). Briefly, biofilms were rinsed with water to remove loosely attached cells, stained for 1 min with Gram's crystal violet (200 μL for microplates and 1 mL for tubes), rinsed, dried, and photographed. For quantitation of biofilms grown in microplates, biofilms were de-stained with 200 μL of 33% acetic acid for 5 min, and the absorbance of the crystal violet solution was measured directly in the plate by means of a BioRad Benchmark microtiter plate-reader set at 590 nm. Crystal violet binds to bacterial biofilms, but not to polystyrene (O'Toole & Kolter, Mol. Microbiol. 1998, 28: 449-461).
(§4) Biofilm Detachment Assay. Biofilms were rinsed with water and treated with 200 μL (for microplates) or 1 mL (for tubes) of DispersinB™ (20 μg/mL in PBS) or SDS (0.001-1% in PBS). After a five- or 30-minute incubation at 37° C., biofilms were rinsed with water and stained with crystal violet as described above. In some assays, biofilms were first treated with DispersinB™ for 5 or 30 min, rinsed, and then treated with SDS. All detachment assays were performed in duplicate wells or tubes. All assays were performed on at least 3 separate occasions, with similar results.

[2] = test system: A. actinomycetemcomitans strain HW1018 (PGA mutant) biofilms; assay: Biofilm detachment assay (crystal violet); type: cell-based; settings: 0.1% SDS in PBS, 5 min; tubes and microplate wells
Text: as §1, §2, §3, §4

[3] = test system: biofilm-embedded S. epidermidis; assay: In vitro biofilm killing assay after DispersinB pre-treatment; type: cell-based, Staphylococcus epidermidis; settings: 37° C.
Method: An in vitro biofilm assay was performed to determine the effect of DispersinB™ pre-treatment on the susceptibility of S. epidermidis to SDS. S. epidermidis biofilm grown in tubes were pretreated with PBS or DispersinB™ (20 μg/ml) for 30 min, and then treated with SDS (0.2 mg/ml) for 5 min at 37° C. […] However, SDS caused a 1.5 log unit decrease in the number of CFUs in tubes pretreated with […] biofilm embedded cells more susceptible to SDS.
An in vitro biofilm assay was performed to determine the effect of DispersinB™ pre-treatment on the susceptibility of biofilm-embedded S. epidermidis to CHX. S. epidermidis biofilm grown in tubes were pretreated with PBS or DispersinB™ (20 μg/ml) for 30 min, and then treated with CHX (0.2 μg/ml) for 5 min at 37° C. […] However, CHX caused a 1.6 log decrease of CFU in tubes pretreated with DispersinB™. DispersinB™ pretreatment made biofilm-embedded cells more susceptible to CHX.
An in vitro biofilm assay was performed to determine the effect of DispersinB™ pre-treatment on the susceptibility of S. epidermidis to BKC. S. epidermidis biofilm grown in tubes were pretreated with PBS or DispersinB™ (20 μg/ml) for 30 min, and then treated with BKC (0.4 μg/ml) for 60 min at 37° C. […] However, BKC caused a 2.2 log decrease in CFU in tubes pretreated with DispersinB™. DispersinB™ pre-treatment made biofilm-embedded cells more susceptible to BKC.
An in vitro biofilm assay was performed to determine the effect of DispersinB™ pre-treatment on susceptibility of S. epidermidis to silver nanopowder (SNP). S. epidermidis biofilm grown in tubes were pretreated with PBS or DispersinB™ (20 μg/ml) for 30 min, and then treated with SNP (0.03125 μg/ml) for 60 min at 37° C. […] However, SNP caused a 1.5 log decrease in CFU in tubes pretreated with DispersinB™. DispersinB™ pre-treatment made biofilm embedded cells more susceptible to SNP treatment.

[4] = test system: A. actinomycetemcomitans CU1000 biofilms; assay: Biofilm killing assay; type: cell-based; settings: for decrease in the number of CFU: then 0.01% SDS 5 min
Method: Biofilm Killing Assay. […] Tubes were vortexed for 10 s, and 20 μL aliquots of the detached biofilms were transferred to the wells of a flat-bottomed 96-well microtiter plate containing 180 μL of fresh broth. Five serial dilutions (20 μL into 180 μL) were performed directly into adjacent wells. Plates were incubated for 48 h and then rinsed and stained with crystal violet as described above. Wells containing 30-300 biofilm colonies were photographed under a dissecting microscope and counted. In some assays, biofilms were pre-treated with 1 mL of DispersinB™ (20 μg/mL in PBS) for 5 min prior to the SDS treatment. In these assays, a 100 μL quantity of SDS in PBS (at 10 times the test concentration) was added directly to the DispersinB™-treated cell suspension and mixed. After 5 min, tubes were vortexed briefly, and 20-μL aliquots of culture were enumerated as described above. Killing assays were performed in duplicate tubes on at least 5 separate occasions, with similar results.

[5] = test system: A. actinomycetemcomitans planktonic cells; settings: SDS; Drake et al. 1992, Wade & Addy 1992; cited from earlier work
S. aureus = assay: MIC in 96 well microtiter plate; type: cell-based; settings: Staphylococcus aureus, triclosan in the presence of DispersinB 40 μg/ml, 37° C.
Method: (§5) The combined antimicrobial activity of DispersinB™ and triclosan was studied by determining minimal inhibitory concentrations (MIC) in a 96 well microtiter plate. Briefly, serial two-fold dilutions of triclosan and in presence of DispersinB™ (40 μg/ml) were performed in TSB. A suspension of each microorganism from Table 1 was added to wells at a concentration of 5×10^5 CFU/mL, and the microtiter plates were incubated at 37° C. The MIC was defined, as the lowest concentration of an antimicrobial required for total inhibition of a test microorganism at 37° C. Triclosan in combination with DispersinB™ was active against all the pathogens tested.

K. pneumoniae = assay: MIC in 96 well microtiter plate; type: cell-based; settings: Klebsiella pneumoniae, triclosan in the presence of DispersinB 40 μg/ml, 37° C.
Method: as §5

E. coli [6] = assay: MIC in 96 well microtiter plate; type: cell-based; settings: Escherichia coli, triclosan in the presence of DispersinB 40 μg/ml, 37° C.
Method: as §5

S. epidermidis [7] = assay: MIC in 96 well microtiter plate; type: cell-based; settings: Staphylococcus epidermidis, triclosan in the presence of DispersinB 40 μg/ml, 37° C.
Method: as §5

P. mirabilis = assay: MIC in 96 well microtiter plate; type: cell-based; settings: Proteus mirabilis, triclosan in the presence of DispersinB 40 μg/ml, 37° C.
Method: as §5

C. albicans = assay: MIC in 96 well microtiter plate; type: cell-based; settings: Candida albicans, triclosan in the presence of DispersinB 40 μg/ml, 37° C.
Method: as §5

E. faecalis = assay: MIC in 96 well microtiter plate; type: cell-based; settings: Enterococcus faecalis, triclosan in the presence of DispersinB 40 μg/ml, 37° C.
Method: as §5

Enterobacter cloacae = assay: MIC in 96 well microtiter plate; type: cell-based; settings: triclosan in the presence of DispersinB 40 μg/ml, 37° C.
Method: as §5

E. faecium = assay: MIC in 96 well microtiter plate; type: cell-based; settings: Enterococcus faecium, triclosan in the presence of DispersinB 40 μg/ml, 37° C.
Method: as §5

S. epidermidis [8] = assay: Adhesion assay with coated silicone catheter segments; type: cell-based, Staphylococcus epidermidis; settings: silicone catheter coated with TCSN 10 mg/ml alone versus DispersinB 40 μg/ml alone
Method: (§6) The adhesion assay was performed to determine the synergistic effect of DispersinB™ and TCSN combination coated silicone catheters on S. epidermidis and E. coli colonization. The silicone catheter segments (1 cm each) were coated by dipping in DispersinB™ (40 μg/ml) and TCSN (10 mg/ml in 10% Polyethylene glycol) alone and in combination for overnight at 4° C. followed by drying at room temperature. The coated and uncoated segments were incubated in S. epidermidis and E. coli culture in TSB medium at 37° C. for 24 hours at 100 rpm. After 24 hours of incubation, the sections were washed three times gently. Each washed section was transferred into a sterile tube containing 1 ml sterile saline and subjected to sonication for 30 seconds and followed by 1 minute vortexing. Further, it was serially diluted using sterile saline and plated using Tryptic Soy Agar (TSA) plates. The plates were incubated at 37° C. for 24 hours and the colonies (CFU) were counted.

CNS 82 = assay: MIC, clinical isolates of wound-associated pathogens; type: cell-based, Coagulase-negative staphylococci; settings: triclosan in the presence of DispersinB 40 μg/ml; clinical isolate CNS 82
Method: as §5
(§7) The antimicrobial activity of DispersinB™ and triclosan combination was studied by determining the minimal inhibitory concentrations (MIC) in 96 well microtiter plates as described in Example 4. Triclosan in combination with DispersinB™ was active against all the pathogens tested (Table 2).

CNS 42 = assay: as above; type: cell-based, Coagulase-negative staphylococci; settings: triclosan in the presence of DispersinB 40 μg/ml; clinical isolate CNS 42
Method: as §5, §7

[9] = test system: Coagulase-negative staphylococci (CNS 11); assay: as above; type: cell-based; settings: triclosan in the presence of DispersinB 40 μg/ml; clinical isolate CNS 11
Method: as §5, §7

S. aureus 120 = assay: as above; type: cell-based; settings: Staphylococcus aureus; triclosan in the presence of DispersinB 40 μg/ml; clinical isolate S. aureus 120
Method: as §5, §7

S. aureus 68 = assay: as above; type: cell-based; settings: Staphylococcus aureus; triclosan in the presence of DispersinB 40 μg/ml; clinical isolate S. aureus 68
Method: as §5, §7

S. aureus Gav 16A = assay: as above; type: cell-based; settings: Staphylococcus aureus, GAV16A; triclosan in the presence of DispersinB 40 μg/ml; clinical isolate S. aureus Gav 16A
Method: as §5, §7

E. coli [10] = assay: Adhesion assay with coated silicone catheter segments; type: cell-based, Escherichia coli; settings: silicone catheter coated with TCSN 10 mg/ml alone versus DispersinB 40 μg/ml alone
Method: as §6

In the case of `CCCCCCCCCCCCOS(=O)(=O)[O-].[Na+]` [SDS, sodium dodecyl sulfate], the “detachment of wild-type biofilms by SDS” value ([1]; 0.001-1% SDS, 5 min, microplate wells, mock pretreatment) is reported as “resistant to detachment at all concentrations of SDS”, the “attachment of wild-type biofilms” value ([1]; 0.1% SDS in PBS, 5 min, tubes and microplate wells) is reported as “no effect” and the “SDS concentrations at which biofilms were resistant to detachment” value ([1]; wild-type biofilms pre-treated with DispersinB 20 μg/mL 30 min, then SDS 5 min, microplate wells) is reported as less than 0.04%. For the same compound, the “SDS concentration of transition from SDS-resistant to SDS-sensitive” value ([1]; wild-type biofilms pre-treated with DispersinB, same transition expressed in mM) was 1.4 to 2.4 mM, the “detachment of PGA mutant biofilms” value [2] was “rapid detachment” and the “killing of biofilm-embedded S. epidermidis” value ([3]; SDS alone, 0.2 mg/ml, 5 min, PBS pretreatment) was “did not significantly kill”. For the same compound, the “decrease in the number of CFUs” value ([3]; tubes pretreated with DispersinB 20 μg/ml 30 min, then SDS 0.2 mg/ml 5 min) was 1.5 log unit, the “killing of A. actinomycetemcomitans biofilms” value ([4]; SDS alone, 0.01%, 5 min, mock pre-treatment) was “did not significantly kill” and the “decrease in the number of CFU” value ([4]; tubes pre-treated with DispersinB 20 μg/mL for 5 min) was 2 log-unit. The “decrease in the number of CFU” value ([4]; tubes pre-treated with DispersinB 20 μg/mL for 30 min) was 4 log-unit and the “MIC against planktonic cells” value [5] was 0.01%.

`Oc1cc(Cl)ccc1Oc1ccc(Cl)cc1Cl` [triclosan] gave an MIC (S. aureus) of less than 0.097 µg/mL, an MIC (K. pneumoniae) of 25 µg/mL and an MIC (E. coli [6]) of 6.25 µg/mL. For the same compound, the MIC (S. epidermidis [7]) was 3.12 µg/mL, the MIC (P. mirabilis) was 12.5 µg/mL and the MIC (C. albicans) was 100 µg/mL. It also gave an MIC (E. faecalis) of 100 µg/mL, an MIC (Enterobacter cloacae) of 25 µg/mL and an MIC (E. faecium) of 12.5 µg/mL. The “inhibiting the growth of biofilm-embedded S. epidermidis, coating alone” value (S. epidermidis [8]) was “more effective than DispersinB™”, the MIC (CNS 82) was less than 0.39 µg/mL and the MIC (CNS 42) was 0.625 µg/mL. The MIC [9] was 25 µg/mL, the MIC (S. aureus 120) was less than 0.39 µg/mL and the MIC (S. aureus 68) was less than 0.39 µg/mL. For the same compound, the MIC (S. aureus Gav 16A) was less than 0.39 µg/mL and the “inhibiting the growth of biofilm-embedded E. coli, coating alone” value (E. coli [10]) was “more effective than DispersinB™”.
